Source: patent publication US20200024278A1, “COMPOSITION COMPRISING ANTIBIOTIC COMPOUND AND AN HETEROCYCLIC COMPOUND AND THEIR USE IN PREVENTING OR TREATING BACTERIAL INFECTIONS” (MUTABILIS, priority 2016, published 2020)

Columns and labels:
Test in all cases: MIC, broth microdilution (CLSI), substance alone or ATB combined with compound at 4 or 8 μg/mL
ECL P99 = assay type: cell-based, E. cloacae; conditions: ECL P99; for MIC ATB combined with Example: Example @4 μg/ml
In short: (§1)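 CLSI M7-A7 broth microdilution. ca-MHB, 5·10^5 CFU/mL log-phase cells, 16-20 h, 35° C, ambient air. Fosfomycin wells + 25 μg/ml glucose-6-phosphate. Visual MIC read.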

ECO UFR39 = assay type: cell-based, E. coli; conditions: ECO UFR39; for MIC ATB combined with Example: Example @4 μg/ml; for MIC ATB combined with Example compound: compound @4 μg/ml
In short: as §1

ECO 190317 = assay type: cell-based, E. coli; conditions: ECO 190317; for MIC ATB combined with Example: Example @4 μg/ml
In short: as §1

PAE UFR48 = assay type: cell-based, P. aeruginosa; conditions: PAE UFR48; for MIC ATB combined with Example: Example @4 μg/ml; for MIC ATB combined with Example compound: compound @4 μg/ml
In short: as §1

PAE UFR90 = assay type: cell-based, P. aeruginosa; conditions: PAE UFR90; for MIC ATB combined with Example: Example @4 μg/ml; for MIC ATB combined with Example compound: compound @4 μg/ml
In short: as §1

PAE 105250 = assay type: cell-based, P. aeruginosa; conditions: PAE 105250; for MIC ATB combined with Example: Example @4 μg/ml; for MIC ATB combined with Example compound: compound @4 μg/ml
In short: as §1

ABA UFR155 = assay type: cell-based, A. baumannii; conditions: Acinetobacter baumannii, substance alone, read-out: MIC
In short: as §1

ABA UFR154 = assay type: cell-based, A. baumannii; conditions: Acinetobacter baumannii, substance alone, read-out: MIC
In short: as §1

SPN 49619 = assay type: cell-based, S. pneumoniae; conditions: SPN 49619; for MIC ATB combined with Example: Example @4 μg/ml; for MIC ATB combined with Example compound: compound @4 μg/ml
In short: as §1

SAU 29213 = assay type: cell-based, S. aureus; conditions: for MIC ATB combined with Example / MIC ATB combined with Example compound: SAU 29213; for MIC ATB combined with Example: Example @4 μg/ml; for MIC ATB combined with Example compound: compound @4 μg/ml
In short: as §1

KPN UFR42 = assay type: cell-based, K. pneumoniae; conditions: KPN UFR42; for MIC ATB combined with Example: Example @4 μg/ml; for MIC ATB combined with Example compound: compound @4 μg/ml
In short: as §1

KPN BAA-1898 = assay type: cell-based, K. pneumoniae; conditions: KPN BAA-1898; for MIC ATB combined with Example: Example @4 μg/ml
In short: as §1

KPN 6299 = assay type: cell-based, K. pneumoniae; conditions: for MIC ATB combined with Example: Example @4 μg/ml
In short: as §1

[1] = Escherichia coli, substance alone, read-out: MIC
[2] = Pseudomonas aeruginosa, substance alone, read-out: MIC

## O=C1N2CC(n3cccn3)=C[C@H](C2)N1OS(=O)(=O)[O-].[Na+] [Example 15, sodium [(5R)-7-oxo-3-pyrazol-1-yl-1,6-diazabicyclo[3.2.1]oct-3-en-6-yl] sulfate]
ECL P99; ATB ATM
  MIC ATB combined with Example: <0.031 µg/mL
ECL P99; ATB FEP
  MIC ATB combined with Example: <0.031 µg/mL
ECL P99; ATB FOS
  MIC ATB combined with Example: <=0.125 μg/mL
ECL P99; ATB MEM
  MIC ATB combined with Example: <0.031 µg/mL
ECL P99; ATB PIP
  MIC ATB combined with Example: <0.031 µg/mL
ECL P99; Enterobacter cloacae, substance alone, read-out: MIC
  MIC: 2 µg/mL
ECL P99; MIC of CIP, compound @4 μg/ml
  MIC ATB combined with Example compound: <=0.031 μg/mL
ECO UFR39; ATB ATM
  MIC ATB combined with Example: <0.031 µg/mL
ECO UFR39; ATB FEP
  MIC ATB combined with Example: <0.031 µg/mL
ECO UFR39; ATB FOS
  MIC ATB combined with Example: <=0.125 μg/mL
ECO UFR39; ATB MEM
  MIC ATB combined with Example: <0.031 µg/mL
ECO UFR39; ATB PIP
  MIC ATB combined with Example: <0.031 µg/mL
ECO UFR39; [1]
  MIC: 2 µg/mL
ECO UFR39; MIC of CIP
  MIC ATB combined with Example compound: <=0.031 μg/mL
ECO UFR39; MIC of CPO
  MIC ATB combined with Example compound: <=0.031 μg/mL
ECO 190317; ATB ATM
  MIC ATB combined with Example: <0.031 µg/mL
ECO 190317; ATB FEP
  MIC ATB combined with Example: <0.031 µg/mL
ECO 190317; ATB FOS
  MIC ATB combined with Example: <0.125 µg/mL
ECO 190317; ATB MEM
  MIC ATB combined with Example: <0.031 µg/mL
ECO 190317; ATB PIP
  MIC ATB combined with Example: <0.031 µg/mL
ECO 190317; [1]
  MIC: 1 µg/mL
ECO 190317; MIC of CIP, compound @4 μg/ml
  MIC ATB combined with Example compound: <0.031 µg/mL
PAE UFR48; ATB ATM
  MIC ATB combined with Example: 8 µg/mL
PAE UFR48; ATB FEP
  MIC ATB combined with Example: 32 µg/mL
PAE UFR48; ATB FOS
  MIC ATB combined with Example: 32 µg/mL
PAE UFR48; ATB MEM
  MIC ATB combined with Example: 0.5 µg/mL
PAE UFR48; ATB PIP
  MIC ATB combined with Example: 32 µg/mL
PAE UFR48; MIC of CIP
  MIC ATB combined with Example compound: 4 µg/mL
PAE UFR48; MIC of CPO
  MIC ATB combined with Example compound: >32 µg/mL
PAE UFR48; [2]
  MIC: > 32 µg/mL
PAE UFR90; ATB ATM
  MIC ATB combined with Example: 4 µg/mL
PAE UFR90; ATB FEP
  MIC ATB combined with Example: 2 µg/mL
PAE UFR90; ATB FOS
  MIC ATB combined with Example: 8 µg/mL
PAE UFR90; ATB MEM
  MIC ATB combined with Example: 1 µg/mL
PAE UFR90; ATB PIP
  MIC ATB combined with Example: 16 µg/mL
PAE UFR90; MIC of CIP
  MIC ATB combined with Example compound: 1 µg/mL
PAE UFR90; MIC of CPO
  MIC ATB combined with Example compound: 4 µg/mL
PAE UFR90; [2]
  MIC: > 32 µg/mL
PAE 105250; ATB ATM
  MIC ATB combined with Example: 8 µg/mL
PAE 105250; ATB FEP
  MIC ATB combined with Example: 8 µg/mL
PAE 105250; ATB FOS
  MIC ATB combined with Example: >128 µg/mL
PAE 105250; ATB MEM
  MIC ATB combined with Example: 2 µg/mL
PAE 105250; ATB PIP
  MIC ATB combined with Example: 32 µg/mL
PAE 105250; MIC of CIP
  MIC ATB combined with Example compound: 0.125 µg/mL
PAE 105250; MIC of CPO
  MIC ATB combined with Example compound: 16 µg/mL
PAE 105250; [2]
  MIC: > 32 µg/mL
ABA UFR155
  MIC: > 32 µg/mL
ABA UFR154
  MIC: > 32 µg/mL
SPN 49619; ATB ATM
  MIC ATB combined with Example: >32 µg/mL
SPN 49619; ATB FEP
  MIC ATB combined with Example: 0.063 µg/mL
SPN 49619; ATB FOS
  MIC ATB combined with Example: 16 µg/mL
SPN 49619; ATB MEM
  MIC ATB combined with Example: <=0.031 μg/mL
SPN 49619; ATB PIP
  MIC ATB combined with Example: 0.5 µg/mL
SPN 49619; MIC of CIP
  MIC ATB combined with Example compound: 0.25 µg/mL
SPN 49619; MIC of CLI
  MIC ATB combined with Example compound: 0.031 µg/mL
SPN 49619; MIC of CPO
  MIC ATB combined with Example compound: <=0.031 μg/mL
SPN 49619; MIC of DAP
  MIC ATB combined with Example compound: 0.125 µg/mL
SPN 49619; MIC of ERY
  MIC ATB combined with Example compound: 0.063 µg/mL
SPN 49619; MIC of LZD
  MIC ATB combined with Example compound: 0.25 µg/mL
SPN 49619; MIC of RIF
  MIC ATB combined with Example compound: 0.0078 µg/mL
SPN 49619; MIC of SYN
  MIC ATB combined with Example compound: 0.5 µg/mL
SPN 49619; MIC of VAN
  MIC ATB combined with Example compound: 0.125 µg/mL
SPN 49619; Streptococcus pneumoniae, substance alone, read-out: MIC
  MIC: 8 µg/mL
SAU 29213; ATB ATM
  MIC ATB combined with Example: >32 µg/mL
SAU 29213; ATB FEP
  MIC ATB combined with Example: 0.5 µg/mL
SAU 29213; ATB FOS
  MIC ATB combined with Example: 0.25 µg/mL
SAU 29213; ATB MEM
  MIC ATB combined with Example: <=0.031 μg/mL
SAU 29213; ATB PIP
  MIC ATB combined with Example: 0.5 µg/mL
SAU 29213; MIC of CIP
  MIC ATB combined with Example compound: <=0.031 μg/mL
SAU 29213; MIC of CLI
  MIC ATB combined with Example compound: <0.0010 µg/mL
SAU 29213; MIC of CPO
  MIC ATB combined with Example compound: 0.063 µg/mL
SAU 29213; MIC of DAP
  MIC ATB combined with Example compound: <=0.0020 μg/mL
SAU 29213; MIC of ERY
  MIC ATB combined with Example compound: <0.0020 µg/mL
SAU 29213; MIC of LZD
  MIC ATB combined with Example compound: 0.016 µg/mL
SAU 29213; MIC of RIF
  MIC ATB combined with Example compound: 0.0039 µg/mL
SAU 29213; MIC of SYN
  MIC ATB combined with Example compound: 0.063 µg/mL
SAU 29213; MIC of VAN
  MIC ATB combined with Example compound: 0.5 µg/mL
SAU 29213; Staphylococcus aureus, substance alone, SAU 29213 (MSSA 29213), read-out: MIC
  MIC: 4 µg/mL
KPN UFR42; ATB ATM
  MIC ATB combined with Example: <0.031 µg/mL
KPN UFR42; ATB FEP
  MIC ATB combined with Example: <0.031 µg/mL
KPN UFR42; ATB FOS
  MIC ATB combined with Example: <=0.125 μg/mL
KPN UFR42; ATB MEM
  MIC ATB combined with Example: <0.031 µg/mL
KPN UFR42; ATB PIP
  MIC ATB combined with Example: <0.031 µg/mL
KPN UFR42; Klebsiella pneumoniae, substance alone, read-out: MIC
  MIC: 4 µg/mL
KPN UFR42; MIC of CIP
  MIC ATB combined with Example compound: >32 µg/mL
KPN UFR42; MIC of CPO
  MIC ATB combined with Example compound: <=0.031 μg/mL
KPN BAA-1898; ATB ATM
  MIC ATB combined with Example: <0.031 µg/mL
KPN BAA-1898; ATB FEP
  MIC ATB combined with Example: <0.031 µg/mL
KPN BAA-1898; ATB FOS
  MIC ATB combined with Example: 0.25 µg/mL
KPN BAA-1898; ATB MEM
  MIC ATB combined with Example: <0.031 µg/mL
KPN BAA-1898; ATB PIP
  MIC ATB combined with Example: <0.031 µg/mL
KPN BAA-1898; Klebsiella pneumoniae, BAA1898, substance alone, read-out: MIC
  MIC: 4 µg/mL
KPN BAA-1898; MIC of CIP, compound @4 μg/ml
  MIC ATB combined with Example compound: <=0.031 μg/mL
KPN 6299; ATB ATM
  MIC ATB combined with Example: <0.031 µg/mL
KPN 6299; ATB FEP
  MIC ATB combined with Example: <=0.25 μg/mL
KPN 6299; ATB FOS
  MIC ATB combined with Example: <=0.125 μg/mL
KPN 6299; ATB MEM
  MIC ATB combined with Example: <0.031 µg/mL
KPN 6299; ATB PIP
  MIC ATB combined with Example: <0.031 µg/mL
KPN 6299; MIC of CIP, compound @4 μg/ml
  MIC ATB combined with Example compound: 0.063 µg/mL
